The values that follow come from US10441689B2, “Methods and devices for three-dimensional printing or additive manufacturing of bioactive medical devices” (Louisiana Tech Research Corporation, priority 2014, dated 2019).

Assay [1] deals with E. Coli bacteria. Nature of the assay: bacterial broth culture. The settings on record: 1 mg amounts; for bacterial growth in broth culture, cooked powder: antibiotic powder heated to 220 Celsius for 5 minutes. In kind it is cell-based. The procedure:
(§1) In another example embodiment (example 3), PLA pellets were run through a filament extruder with 2% gentamicine powder at 175 Celsius. The resulting filament was tested on bacterial plates using antibiotic susceptibility gel diffusion testing using E. Coli bacteria. A kill zone was observed around the filament. […] The filament is run through a 3D printer head nozzle at 220 Celsius and 300 um fibers are created. […] It should be noted that bacterial plates and cultures were carried out as close to Kirby-Bauer ISO standards as possible being that of 100 mm Mueller Hinton plates or Mueller Hinton broths. E. Coli colonies (Sigma Aldrich Vitroid Origin) used to seed plates were taken from 0.5 McFarland standard solutions in 50 uL quantities. Control plates and broths were used. Control PLA printed discs, beads, stents and catheters were used to compare against antibiotic filaments. Molded bone cement beads, discs and filaments made of Ortho-Right LV bone cements were used as comparison for no antibiotic and antibiotic controls.

The subject of assay [2] is E. Coli bacteria. The experiment in a line: bacterial plates, antibiotic susceptibility gel diffusion testing. Particulars: 1 mg amounts; for kill zone on bacterial plate, cooked powder: antibiotic powder heated to 220 Celsius for 5 minutes. The assay is classed as cell-based. As for the experimental part:
as §1

Turning to `NC[C@H]1O[C@H](O[C@H]2[C@H](O)[C@@H](O[C@H]3O[C@H](CO)[C@@H](O)[C@H](N)[C@H]3O)[C@H](N)C[C@@H]2N)[C@H](N)C[C@@H]1O` [Tobramycin], in assay [1], the “bacterial growth in broth culture, cooked powder” value was “no bacterial growth” and the “bacterial growth in broth culture, uncooked control powder” value is listed as “no bacterial growth”. Further, in assay [2], the “kill zone on bacterial plate, cooked powder” value is recorded as “kill zones” and the “kill zone on bacterial plate, uncooked control powder” value is recorded as “kill zones”.

Regarding Gentamicin, in assay [1], the “bacterial growth in broth culture, cooked powder” value was “no bacterial growth” and the “bacterial growth in broth culture, uncooked control powder” value was “no bacterial growth”. Moreover, in assay [2], the “kill zone on bacterial plate, cooked powder” value is given as “kill zones” and the “kill zone on bacterial plate, uncooked control powder” value is listed as “kill zones”.
